# From patent US20230346670A1, “Prebiotic Oral Care Compositions and Methods” (Colgate-Palmolive Company, priority 2020, published 2023)
# Where “and” joins values, the source holds several entries; their conditions need not be identical. Equal values may be shown once. Marks after values point to notes of the source that are not given here.
# How the values were obtained:
# Assay type in all cases: cell-based
# [1] = test system: multi-species biofilm (beneficial/commensal species, periodontal pathogens, cariogenic pathogens); assay: Multi-species biofilm composition, relative proportions and group changes
# Procedure: Biofilms are grown vertically on Calcium Deficient Hydroxyapatite (CAD-HA) disks (Hitemco Medical, Old Bethpage, USA) using the Amsterdam Active Adhesion model. […] After this 24 h, disks are rinsed 3 times a day for 3 minutes (RT, 250 rpm), for 3 consecutive days, by transferring the lid containing the disks to a new 24-well plate containing 2 mL/well of the appropriate substrate solution. As a negative control, PBS (pH 5.7) without substrate supplementation is used. N-acetyl-D-glucosamine (NADG), α-D-lactose, D-(+)-trehalose and D-(+)-raffinose are selected to determine their effects on multi-species biofilm composition. Repeated rinsing of the biofilms with the substrates at a concentration of 1 M results in a significant decrease in absolute numbers in at least four of the pathogenic bacterial species tested in the assay, in comparison to the control, the results of which are described in Table 1 below. Note, NADG decreased absolute numbers of S. sobrinus. Absolute abundances of bacterial species are shown as mean ± SD (n = 3) logarithmic values of the genome equivalents per millilitre (log(Geq/mL)).
# [2] = test system: P. gingivalis virulence genes; assay: Virulence gene expression in multi-species biofilm (SYBR RT-qPCR); conditions: for fold change in fimA expression, geometric mean (95% C.I.) / fold change in kgp expression, geometric mean (95% C.I.) / fold change in partC expression, geometric mean (95% C.I.) / fold change in rgpA expression, geometric mean (95% C.I.): relative to control, 2^-ΔΔCt, n = 3
# Procedure: (§1) Biofilms are grown vertically on Calcium Deficient Hydroxyapatite (CAD-HA) disks (Hitemco Medical, Old Bethpage, USA) using the Amsterdam Active Adhesion model. Biofilms are allowed to establish during 24 h (37° C., 170 rpm) under microaerophilic conditions (6% O2, 7% CO2, 7% H2, 80% N2). After this 24 h, disks are rinsed 3 times a day for 3 minutes (RT, 250 rpm), for 3 consecutive days, by transferring the lid containing the disks to a new 24-well plate containing 2 mL/well of the appropriate substrate solution. As a negative control, PBS (pH 5.7) without substrate supplementation is used.
# (§2) The virulence of the substrate-treated multi-species biofilms are evaluated by analyzing the relative expression of 33 genes that are recognized as being related to some form of virulence and from 4 periodontal pathogens.
# (§3) Expression of bacterial virulence genes is analyzed through SYBR RT-qPCR and normalized for bacterial housekeeping gene expression. […] These effects are illustrated in Tables 6a and 6b:
# (§4) Note, for Tables 6a and 6b, that fold changes in virulence gene expression are determined relative to the control condition through the 2^^-ΔΔCt method and are shown as the geometric mean (C.I.) (n = 3) of the 2^^-ΔΔ ^Ct values. All substrates are dissolved in PBS at a concentration of 1 M (upper part) or 1%(w/v) (lower part). Values between 0 and 1 represent relative downregulation, values >1 represent relative upregulation. […] NADG: N-acetyl-D-glucosamine; C.I.: 95% confidence interval.
# [3] = test system: A. actinomycetemcomitans virulence genes; assay: as above
# Procedure: as §1, §2, §3, §4
# [4] = test system: F. nucleatum virulence genes; assay: as above; conditions: for fold change in ABC transp. perm. (ABC transporter permease) expression, geometric mean (95% C.I.) / fold change in EF-G expression, geometric mean (95% C.I.) / fold change in but. -coA transf. (butyrate-acetoacetate CoA-transferase) expression, geometric mean (95% C.I.) / fold change in hemin receptor expression, geometric mean (95% C.I.) / fold change in hemolysin expression, geometric mean (95% C.I.) / fold change in ompA expression, geometric mean (95% C.I.) / fold change in transposase expression, geometric mean (95% C.I.): relative to control = 1, 2^-ΔΔCt, n = 3
# Procedure: as §1, §2, §3
# as §4, with “Table 6c,” for “Tables 6a and 6b, that”, “2^^-ΔΔCt” for “2^^-ΔΔ ^Ct”
# S. sobrinus = assay: Multi-species biofilm composition, absolute abundance (Geq/mL); conditions: repeated rinsing
# Procedure: as §1
# (§5) N-acetyl-D-glucosamine (NADG), α-D-lactose, D-(+)-trehalose and D-(+)-raffinose are selected to determine their effects on multi-species biofilm composition. Repeated rinsing of the biofilms with the substrates at a concentration of 1 M results in a significant decrease in absolute numbers in at least four of the pathogenic bacterial species tested in the assay, in comparison to the control, the results of which are described in Table 1 below. Note, NADG decreased absolute numbers of S. sobrinus. Absolute abundances of bacterial species are shown as mean ± SD (n = 3) logarithmic values of the genome equivalents per millilitre (log(Geq/mL)).
# P. gingivalis = assay: as above; conditions: repeated rinsing
# Procedure: as §1, §5
# S. gordonii = assay: as above; conditions: repeated rinsing
# Procedure: as §1, §5
# S. mitis = assay: as above; conditions: repeated rinsing
# Procedure: as §1, §5
# S. oralis = assay: as above; conditions: repeated rinsing
# Procedure: as §1, §5
# A. naeslundii = assay: as above; conditions: repeated rinsing
# Procedure: as §1, §5
# [5] = Table 3, separate experiments, concentration not given
# [6] = lower part of Table 6a, substrate 1%(w/v), relative to control = 1
# [7] = substrate 1 M, relative to control = 1, 2^-ΔΔCt, n = 3
compound,measurement,setting,value
"CC(=O)N[C@H]1C(O)O[C@H](CO)[C@@H](O)[C@@H]1O (stereo partly drawn) [NADG, N-acetyl-D-glucosamine]",relative proportion of beneficial or commensal species in biofilm,"[1]; Table 1a, substrate 1 M",97.86±1.11 % (Geq/mL) and 97.86 (+/- 1.11)^∗ % (Geq/mL)
same,relative proportion of cariogenic pathogens in biofilm,"[1]; Table 1a, substrate 1 M",0.68±0.33 % (Geq/mL) and 0.68 (+/- 0.33) % (Geq/mL)
same,relative proportion of periodontal pathogens in biofilm,"[1]; Table 1a, substrate 1 M",1.46±0.97 % (Geq/mL) and 1.46 (+/- 0.97)^∗ % (Geq/mL)
same,relative proportion of beneficials/commensals in biofilm,[1]; [5],60.07 (+/- 8.25) % (Geq/mL)
same,relative proportion of cariogenic pathogens in biofilm,[1]; [5],0.66±0.27 % (Geq/mL) and 0.66 (+/- 0.27^∗) % (Geq/mL)
same,relative proportion of periodontal pathogens in biofilm,[1]; [5],39.27 (+/- 7.98) % (Geq/mL)
same,downregulation of P. gingivalis partC expression,[2]; substrate 1% (w/v),approximately 2.8 fold
same,"fold change in fimA expression, geometric mean (95% C.I.)",[2]; substrate 1 % (w/v),1.15 (0.32-4.06) fold
same,"fold change in kgp expression, geometric mean (95% C.I.)",[2]; substrate 1 % (w/v),1.81 (0.44-7.50) fold
same,"fold change in partC expression, geometric mean (95% C.I.)",[2]; substrate 1 % (w/v),0.36 (0.08-1.68)^∗ fold
same,"fold change in rgpA expression, geometric mean (95% C.I.)",[2]; substrate 1 % (w/v),1.31 (1.03-1.66) fold
same,"fold change in fimA expression, geometric mean (95% C.I.)",[2]; substrate 1 M,0.79 (0.44-1.39) fold
same,"fold change in kgp expression, geometric mean (95% C.I.)",[2]; substrate 1 M,0.07 (0.04-0.13)^∗ fold
same,"fold change in partC expression, geometric mean (95% C.I.)",[2]; substrate 1 M,0.19 (0.13-0.28)^∗ fold
same,"fold change in rgpA expression, geometric mean (95% C.I.)",[2]; substrate 1 M,0.39 (0.18-0.84) fold
same,"fold change in aae expression, geometric mean (95% C.I.)",[3]; [6],1.55 (1.18-2.03) fold
same,"fold change in apaH expression, geometric mean (95% C.I.)",[3]; [6],0.73 (0.41-1.29) fold
same,"fold change in cdtB expression, geometric mean (95% C.I.)",[3]; [6],1.05 (0.61-1.81) fold
same,"fold change in emaA expression, geometric mean (95% C.I.)",[3]; [6],0.68 (0.15-3.07) fold
same,"fold change in flp expression, geometric mean (95% C.I.)",[3]; [6],0.54 (0.19-1.56) fold
same,"fold change in ltxA expression, geometric mean (95% C.I.)",[3]; [6],0.4 (0.11-1.39) fold
same,"fold change in omp29 expression, geometric mean (95% C.I.)",[3]; [6],0.77 (0.69-0.87) fold
same,"fold change in omp100 expression, geometric mean (95% C.I.)",[3]; [6],0.71 (0.42-1.18) fold
same,"fold change in orf859 expression, geometric mean (95% C.I.)",[3]; [6],1.99 (0.94-4.22)* fold
same,"fold change in pgA expression, geometric mean (95% C.I.)",[3]; [6],1.07 (0.29-3.97) fold
same,"fold change in vapA expression, geometric mean (95% C.I.)",[3]; [6],0.65 (0.48-0.86) fold
same,"fold change in vppA expression, geometric mean (95% C.I.)",[3]; [6],0.28 (0.09-0.86)* fold
same,"fold change in aae expression, geometric mean (95% C.I.)",[3]; [7],0.24 (0.18-0.33)^∗ fold
same,"fold change in apaH expression, geometric mean (95% C.I.)",[3]; [7],0.08 (0.02-0.29)^∗ fold
same,"fold change in cdtB expression, geometric mean (95% C.I.)",[3]; [7],0.04 (0.01-0.20)* fold
same,"fold change in emaA expression, geometric mean (95% C.I.)",[3]; [7],0.29 (0.07-1.20)* fold
same,"fold change in flp expression, geometric mean (95% C.I.)",[3]; [7],2.40 (0.67-8.67) fold
same,"fold change in ltxA expression, geometric mean (95% C.I.)",[3]; [7],0.01 (0.00-0.20)* fold
same,"fold change in omp29 expression, geometric mean (95% C.I.)",[3]; [7],0.19 (0.09-0.38)* fold
same,"fold change in omp100 expression, geometric mean (95% C.I.)",[3]; [7],0.03 (0.01-0.05)* fold
same,"fold change in orf859 expression, geometric mean (95% C.I.)",[3]; [7],0.13 (0.05-0.36)* fold
same,"fold change in pgA expression, geometric mean (95% C.I.)",[3]; [7],11.6 (3.23-41.74)* fold
same,"fold change in vapA expression, geometric mean (95% C.I.)",[3]; [7],1.00 (0.58-1.75) fold
same,"fold change in vppA expression, geometric mean (95% C.I.)",[3]; [7],0.49 (0.41-0.59) fold
same,"fold change in ABC transp. perm. (ABC transporter permease) expression, geometric mean (95% C.I.)",[4]; substrate 1% (w/v),0.33 (0.12-0.87)^∗ fold
same,"fold change in EF-G expression, geometric mean (95% C.I.)",[4]; substrate 1% (w/v),0.10 (0.02-0.45)^∗ fold
same,"fold change in but. -coA transf. (butyrate-acetoacetate CoA-transferase) expression, geometric mean (95% C.I.)",[4]; substrate 1% (w/v),0.21 (0.11-0.39)^∗ fold
same,"fold change in hemin receptor expression, geometric mean (95% C.I.)",[4]; substrate 1% (w/v),0.19 (0.02-1.67)^∗ fold
same,"fold change in hemolysin expression, geometric mean (95% C.I.)",[4]; substrate 1% (w/v),0.79 (0.30-2.04) fold
same,"fold change in ompA expression, geometric mean (95% C.I.)",[4]; substrate 1% (w/v),0.74 (0.18-2.98) fold
same,"fold change in transposase expression, geometric mean (95% C.I.)",[4]; substrate 1% (w/v),0.98 (0.18-5.39) fold
same,"upregulation of F. nucleatum virulence gene expression, range over genes",[4]; substrate 1 M,more limited and only significant for 2 genes
same,"fold change in ABC transp. perm. (ABC transporter permease) expression, geometric mean (95% C.I.)",[4]; substrate 1 M,3.33 (2.53-4.39)^∗ fold
same,"fold change in EF-G expression, geometric mean (95% C.I.)",[4]; substrate 1 M,1.45 (0.93-2.26) fold
same,"fold change in but. -coA transf. (butyrate-acetoacetate CoA-transferase) expression, geometric mean (95% C.I.)",[4]; substrate 1 M,1.21 (0.99-1.49) fold
same,"fold change in hemin receptor expression, geometric mean (95% C.I.)",[4]; substrate 1 M,3.26 (2.24-4.76)^∗ fold
same,"fold change in hemolysin expression, geometric mean (95% C.I.)",[4]; substrate 1 M,1.90 (1.29-2.79) fold
same,"fold change in ompA expression, geometric mean (95% C.I.)",[4]; substrate 1 M,1.33 (0.78-2.25) fold
same,"fold change in transposase expression, geometric mean (95% C.I.)",[4]; substrate 1 M,1.27 (0.68-2.37) fold
same,"absolute abundance of S. sobrinus, mean ± SD log (Geq/mL)",S. sobrinus; substrate 1% (w/v),4.87 ± 0.22 log (Geq/mL)
same,"absolute abundance of S. sobrinus, mean ± SD log (Geq/mL)","S. sobrinus; substrate 1 M in PBS, n = 3",3.46 ± 0.19^∗ log (Geq/mL)
same,"absolute abundance of P. gingivalis (Pg), mean ± SD log (Geq/mL)",P. gingivalis; substrate 1% (w/v),7.14 ± 0.28 log (Geq/mL)
same,"absolute abundance of P. gingivalis (Pg), mean ± SD log (Geq/mL)","P. gingivalis; substrate 1 M in PBS, n = 3",4.43 ± 0.14^∗ log (Geq/mL)
same,"absolute abundance of S. gordonii, mean ± SD log (Geq/mL)",S. gordonii; substrate 1% (w/v),8.33 ± 0.06 log (Geq/mL)
same,"absolute abundance of S. gordonii, mean ± SD log (Geq/mL)","S. gordonii; substrate 1 M in PBS, n = 3",9.80 ± 0.22^∗ log (Geq/mL)
same,"absolute abundance of S. mitis, mean ± SD log (Geq/mL)",S. mitis; substrate 1% (w/v),2.65 ± 0.00 log (Geq/mL)
same,"absolute abundance of S. mitis, mean ± SD log (Geq/mL)","S. mitis; substrate 1 M in PBS, n = 3",3.38 ± 1.04 log (Geq/mL)
same,"absolute abundance of S. oralis, mean ± SD log (Geq/mL)",S. oralis; substrate 1% (w/v),7.11 ± 0.14 log (Geq/mL)
same,"absolute abundance of S. oralis, mean ± SD log (Geq/mL)","S. oralis; substrate 1 M in PBS, n = 3",7.96 ± 0.59 log (Geq/mL)
same,"absolute abundance of A. naeslundii (An), mean ± SD log (Geq/mL)",A. naeslundii; substrate 1% (w/v),7.71 ± 0.12 log (Geq/mL)
same,"absolute abundance of A. naeslundii (An), mean ± SD log (Geq/mL)","A. naeslundii; substrate 1 M in PBS, n = 3",5.41 ± 0.31^∗ log (Geq/mL)
